Reference: US9763445B2, “Safened herbicidal compositions comprising a pyridine carboxylic acid herbicide” (Dow AgroSciences, LLC, priority 2014, dated 2017)
Read-outs that look alike come from different tables or passages of the source.

Columns and labels:
thistle (CIRAR) = assay: Postemergence greenhouse trial, % visual injury on thistle; type: in vivo, Cirsium arvense
Method in brief: (§1)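 Visual injury, 0 (none) to 100 (complete kill), rated 20-22 d after overhead track-sprayer application at 187 L/ha; Colby's equation gave expected mixture responses. Herbicide (g ae/ha) and cloquintocet-mexyl safener (g ai/ha) diluted in aqueous 1.5% v/v Agri-dex, applied to weeds at 2–3 true leaves.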

[1] = system: bird's-eye speedwell (VERPE); assay: Postemergence greenhouse trial, % visual injury on bird's-eye speedwell; type: in vivo, Veronica persica; settings: VERPE; for % visual injury, Ob: CQC-m 0
Description: Seeds of the desired test plant species were planted in Sun Gro MetroMix® 306 planting mixture, which typically has a pH of 6.0 to 6.8 and an organic matter content of about 30 percent, in plastic pots with a surface area of 103.2 square centimeters (cm^2). When required to ensure good germination and healthy plants, a fungicide treatment and/or other chemical or physical treatment was applied. The plants were grown for 7-36 days (d) in a greenhouse with an approximate 14-hour (h) photoperiod which was maintained at about 23° C. during the day and 22° C. during the night. Nutrients and water were added on a regular basis and supplemental lighting was provided with overhead metal halide 1000-Watt lamps as necessary. The plants were employed for testing when they reached the second or third true leaf stage.
Weighed amounts of technical material were dissolved in a volume of 97:3 volume per volume (v/v) acetone/dimethyl sulfoxide (DMSO) to stock solutions. […] The concentrated stock solutions were diluted with an aqueous mixture of 1.5% v/v of Agri-dex crop oil concentrate to provide the appropriate application rates. Compound requirements are based upon a 12 milliliter (mL) application volume at a rate of 187 liters per hectare (L/ha). Stocks solutions of the safeners were prepared following the same procedure. Spray solutions of the safeners and experimental compound mixtures were prepared by adding the stock solutions to the appropriate amount of dilution solution to form a 12 mL spray solution in two-way combinations. Formulated compounds were applied to the plant material with an overhead Mandel track sprayer equipped with 8002E nozzles calibrated to deliver 187 L/ha over an application area of 0.503 square meters (m^2) at a spray height of 18 inches (43 centimeters (cm)) above average plant canopy. Control plants were sprayed in the same manner with the solvent blank. All herbicide application (component a) rates are in g ae/ha and all safener (component b) rates are in g ai/ha.
The treated plants and control plants were placed in a greenhouse as described above and watered by sub-irrigation to prevent wash-off of the test compounds. After 20-22 d, the condition of the test plants as compared with that of the control plants was determined visually and scored on a scale of 0 to 100 percent where 0 corresponds to no injury and 100 corresponds to complete kill. […] Colby's equation was used to determine the herbicidal effects expected from the mixtures. […]

wild mustard (SINAR) = assay: Postemergence greenhouse trial, % visual injury on wild mustard; type: in vivo, Sinapis arvensis; settings: SINAR
Method in brief: (§2)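 Herbicide rates g ae/ha, safener (cloquintocet-mexyl) rates g ai/ha; spray carrier 1.5% v/v crop oil concentrate, 187 L/ha, 2nd–3rd leaf stage. Rating: visual % injury at 20-22 d.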

common poppy (PAPRH) = assay: Postemergence greenhouse trial, % visual injury on common poppy; type: in vivo, Papaver rhoeas; settings: PAPRH
Method in brief: as §2

lambsquarters (CHEAL) = assay: Postemergence greenhouse trial, % visual injury on lambsquarters; type: in vivo, Chenopodium album; settings: for % visual injury, observed (Ob): CHEAL
Method in brief: as §1

spring barley (HORVS) = assay: Postemergence greenhouse trial, % visual injury on spring barley; type: in vivo, Hordeum vulgare; settings: HORVS, CQC-m 0
Method in brief: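 Greenhouse crops at second to third true leaf stage sprayed postemergence at 187 L/ha with herbicide (g ae/ha) plus safener (g ai/ha) in acetone/DMSO diluted into 1.5% v/v Agri-dex. Injury scored visually versus solvent-blank controls after 20-22 d, 0 (none) to 100% (complete kill); expected mixture effects by Colby's equation.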

[2] = compound 2 4.380 + CQC-m 0 g/ha

Compound: Nc1c(F)c(-c2ccc3cc[nH]c3c2F)nc(C(=O)OCc2ccccc2)c1Cl [compound 2]
- % visual injury, observed (Ob) (thistle (CIRAR); CIRAR, compound 2 4.380 + CQC-m 0 g/ha): 35%
- % visual injury, observed (Ob) (thistle (CIRAR); CIRAR, compound 2 8.75 + CQC-m 0 g/ha): 63%
- % visual injury, observed (Ob) (thistle (CIRAR); CIRAR, compound 2 17.5 + CQC-m 0 g/ha): 80%
- % visual injury, observed (Ob) (thistle (CIRAR); CIRAR, compound 2 35 + CQC-m 0 g/ha): 99%
- % visual injury, observed (Ob) (thistle (CIRAR); CIRAR, compound 2 70 + CQC-m 0 g/ha): 99%
- pest or weed control at 35 g/ha (thistle (CIRAR); Cirsium arvense, post-emergence, alone, 35 g/ha, read-out: % visual injury, Ob): 70%
- % visual injury, observed (Ob) [1, 2]: 75%
- % visual injury, observed (Ob) ([1]; compound 2 8.75 + CQC-m 0 g/ha): 95%
- % visual injury, observed (Ob) ([1]; compound 2 17.5 + CQC-m 0 g/ha): 100%
- % visual injury, observed (Ob) ([1]; compound 2 35 + CQC-m 0 g/ha): 100%
- % visual injury, observed (Ob) ([1]; compound 2 70 + CQC-m 0 g/ha): 100%
- % visual injury, observed (Ob) (wild mustard (SINAR); [2]): 94%
- % visual injury, observed (Ob) (wild mustard (SINAR); compound 2 8.75 + CQC-m 0 g/ha): 95%
- % visual injury, observed (Ob) (wild mustard (SINAR); compound 2 17.5 + CQC-m 0 g/ha): 99%
- % visual injury, observed (Ob) (wild mustard (SINAR); compound 2 35 + CQC-m 0 g/ha): 100%
- % visual injury, observed (Ob) (wild mustard (SINAR); compound 2 70 + CQC-m 0 g/ha): 100%
- % visual injury, observed (Ob) (common poppy (PAPRH); [2]): 93%
- % visual injury, observed (Ob) (common poppy (PAPRH); compound 2 8.75 + CQC-m 0 g/ha): 100%
- % visual injury, observed (Ob) (common poppy (PAPRH); compound 2 17.5 + CQC-m 0 g/ha): 100%
- % visual injury, observed (Ob) (common poppy (PAPRH); compound 2 35 + CQC-m 0 g/ha): 100%
- % visual injury, observed (Ob) (common poppy (PAPRH); compound 2 70 + CQC-m 0 g/ha): 100%
- % visual injury, observed (Ob) (lambsquarters (CHEAL); [2]): 85%
- % visual injury, observed (Ob) (lambsquarters (CHEAL); compound 2 8.75 + CQC-m 0 g/ha): 95%
- % visual injury, observed (Ob) (lambsquarters (CHEAL); compound 2 17.5 + CQC-m 0 g/ha): 97%
- % visual injury, observed (Ob) (lambsquarters (CHEAL); compound 2 35 + CQC-m 0 g/ha): 100%
- % visual injury, observed (Ob) (lambsquarters (CHEAL); compound 2 70 + CQC-m 0 g/ha): 100%
- pest or weed control at 35 g/ha (lambsquarters (CHEAL); Chenopodium album, post-emergence, alone, 35 g/ha, read-out: % visual injury, Ob): 97%

Compound: CO/C=N/c1c(F)c(-c2ccc3cc[nH]c3c2F)nc(C(=O)OC)c1Cl [compound 10]
- pest or weed control at 4.38 g/ha (thistle (CIRAR); Cirsium arvense, post-emergence, CIRAR, compound 4.380 g/ha, CQC-m 0, read-out: % visual injury, Ob): 30%
- pest or weed control at 8.75 g/ha (thistle (CIRAR); Cirsium arvense, post-emergence, CIRAR, compound 8.75 g/ha, CQC-m 0, read-out: % visual injury, Ob): 40%
- pest or weed control at 17.5 g/ha (thistle (CIRAR); Cirsium arvense, post-emergence, CIRAR, compound 17.5 g/ha, CQC-m 0, read-out: % visual injury, Ob): 60%
- pest or weed control at 35 g/ha (thistle (CIRAR); Cirsium arvense, post-emergence, CIRAR, compound 35 g/ha, CQC-m 0, read-out: % visual injury, Ob): 85%
- pest or weed control at 70 g/ha (thistle (CIRAR); Cirsium arvense, post-emergence, CIRAR, compound 70 g/ha, CQC-m 0, read-out: % visual injury, Ob): 100%
- % visual injury, Ob (spring barley (HORVS); compound 4.380 g/ha): 0%
- % visual injury, Ob (spring barley (HORVS); compound 8.75 g/ha): 10%
- % visual injury, Ob (spring barley (HORVS); compound 17.5 g/ha): 20%
- % visual injury, Ob (spring barley (HORVS); compound 35 g/ha): 20%
- % visual injury, Ob (spring barley (HORVS); compound 70 g/ha): 40%
- % visual injury, Ob ([1]; compound 4.380 g/ha): 70%
- % visual injury, Ob ([1]; compound 8.75 g/ha): 85%
- % visual injury, Ob ([1]; compound 17.5 g/ha): 90%
- % visual injury, Ob ([1]; compound 35 g/ha): 100%
- % visual injury, Ob ([1]; compound 70 g/ha): 100%
- pest or weed control at 4.38 g/ha (wild mustard (SINAR); Brassica, post-emergence, compound 4.380 g/ha, CQC-m 0, read-out: % visual injury, Ob): 90%
- pest or weed control at 8.75 g/ha (wild mustard (SINAR); Brassica, post-emergence, compound 8.75 g/ha, CQC-m 0, read-out: % visual injury, Ob): 93%
- pest or weed control at 17.5 g/ha (wild mustard (SINAR); Brassica, post-emergence, compound 17.5 g/ha, CQC-m 0, read-out: % visual injury, Ob): 97%
- pest or weed control at 35 g/ha (wild mustard (SINAR); Brassica, post-emergence, compound 35 g/ha, CQC-m 0, read-out: % visual injury, Ob): 100%
- pest or weed control at 70 g/ha (wild mustard (SINAR); Brassica, post-emergence, compound 70 g/ha, CQC-m 0, read-out: % visual injury, Ob): 100%
